# Test results from patent US10323022B2, “Pyrrolidinyl urea, pyrrolidinyl thiourea and pyrrolidinyl guanidine compounds as TrkA kinase inhibitors” (Array BioPharma Inc., priority 2011, dated 2019).
# Target: TrkA (Homo sapiens (Human), UniProt P04629)
# Assay: TrkA Omnia Assay
# Type: biochemical
# Conditions: averaged IC50; 20 nM enzyme, 500 μM ATP, 10 μM peptide substrate
# Outline: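 Continuous fluorescent kinase read-out (ex 360 nm, em 485 nm) over 70 min, with initial rates fitted to 4- or 5-parameter logistic curves for IC50. Final conditions: 500 μM ATP, 10 μM Omnia Tyr Peptide #4, 20 nM TrkA, MOPS pH 7.5 buffer with MgCl2 and Triton X-100; enzyme and compound preincubated 10 min at ambient temperature.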
# Sequence of TrkA (P04629 33-796): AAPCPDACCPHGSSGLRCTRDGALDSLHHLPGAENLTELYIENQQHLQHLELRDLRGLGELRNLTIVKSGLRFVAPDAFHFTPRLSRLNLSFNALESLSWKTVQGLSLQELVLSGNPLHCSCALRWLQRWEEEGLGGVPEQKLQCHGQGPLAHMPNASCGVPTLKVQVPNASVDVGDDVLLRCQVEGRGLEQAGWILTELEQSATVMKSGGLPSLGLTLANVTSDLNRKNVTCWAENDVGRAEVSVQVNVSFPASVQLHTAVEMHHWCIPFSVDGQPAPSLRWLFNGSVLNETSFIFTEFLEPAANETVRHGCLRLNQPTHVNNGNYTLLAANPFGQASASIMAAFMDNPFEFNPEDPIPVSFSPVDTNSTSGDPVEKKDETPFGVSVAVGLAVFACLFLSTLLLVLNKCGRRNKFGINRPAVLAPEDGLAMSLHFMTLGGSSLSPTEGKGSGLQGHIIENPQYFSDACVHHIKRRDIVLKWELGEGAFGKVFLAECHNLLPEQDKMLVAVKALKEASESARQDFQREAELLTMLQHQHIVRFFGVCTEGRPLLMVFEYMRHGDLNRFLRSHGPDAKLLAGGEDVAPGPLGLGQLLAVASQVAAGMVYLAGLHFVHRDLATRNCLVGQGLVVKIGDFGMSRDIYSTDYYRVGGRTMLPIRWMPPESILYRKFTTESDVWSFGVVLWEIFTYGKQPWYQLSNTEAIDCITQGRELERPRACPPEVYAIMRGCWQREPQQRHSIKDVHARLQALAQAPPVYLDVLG
row,SMILES,IC50 [nM]
1,"COCCN1C[C@@H](NC(=O)Nc2c(C)c(-c3cc(C)n(C)n3)nn2-c2ccccc2)[C@H](c2cc(F)cc(F)c2)C1 [Example 306, 1-((3S,4R)-4-(3,5-difluorophenyl)-1-(2-methoxyethyl)pyrrolidin-3-yl)-3-(1′,4,5′-trimethyl-1-phenyl-1H,1′H-[3,3′-bipyrazol]-5-yl)urea]",< 100
2,"COCCN1C[C@@H](NC(=O)Nc2c(C)c(-c3cc(C)n(C)n3)nn2-c2ccccc2)[C@H](c2ccc(F)cc2)C1 [Example 307, 1-((3S,4R)-4-(4-fluorophenyl)-1-(2-methoxyethyl)pyrrolidin-3-yl)-3-(1′,4,5′-trimethyl-1-phenyl-1H,1′H-[3,3′-bipyrazol]-5-yl)urea]",< 100
3,"COCCN1C[C@@H](NC(=O)Nc2c(C)c(-c3cc(C)nn3C)nn2-c2ccccc2)[C@H](c2ccc(F)c(F)c2)C1 [Example 308, 1-((3S,4R)-4-(3,4-difluorophenyl)-1-(2-methoxyethyl)pyrrolidin-3-yl)-3-(2′,4,5′-trimethyl-1-phenyl-1H,2′H-[3,3′-bipyrazol]-5-yl)urea]",< 100
4,"COCCN1C[C@@H](NC(=O)Nc2c(C3CC3)c(-c3cnn(C)c3)nn2-c2ccccc2)[C@H](c2ccc(F)c(F)c2)C1 [Example 309, 1-(4-cyclopropyl-1′-methyl-1-phenyl-1H,1′H-[3,4′-bipyrazol]-5-yl)-3-((3S,4R)-4-(3,4-difluorophenyl)-1-(2-methoxyethyl)pyrrolidin-3-yl)urea]",< 100
5,"COCCN1C[C@@H](NC(=O)Nc2c(C(C)C)c(-c3cnn(C)c3)nn2-c2ccccc2)[C@H](c2ccc(F)c(F)c2)C1 [Example 310, 1-((3S,4R)-4-(3,4-difluorophenyl)-1-(2-methoxyethyl)pyrrolidin-3-yl)-3-(4-isopropyl-1′-methyl-1-phenyl-1H,1′H-[3,4′-bipyrazol]-5-yl)urea]",100 to 1000
6,"CCc1c(-c2cnn(C)c2)nn(-c2ccccc2)c1NC(=O)N[C@@H]1CN(CCOC)C[C@H]1c1ccc(F)c(F)c1 [Example 311, 1-((3S,4R)-4-(3,4-difluorophenyl)-1-(2-methoxyethyl)pyrrolidin-3-yl)-3-(4-ethyl-1′-methyl-1-phenyl-1H,1′H-[3,4′-bipyrazol]-5-yl)urea]",< 100
7,"COCCN1C[C@@H](NC(=O)Nc2c(C)c(-c3cnn(C)c3)nn2-c2ccc(F)cc2)[C@H](c2ccc(F)c(F)c2)C1 [Example 312, 1-((3S,4R)-4-(3,4-difluorophenyl)-1-(2-methoxyethyl)pyrrolidin-3-yl)-3-(1-(4-fluorophenyl)-1′,4-dimethyl-1H,1′H-[3,4′-bipyrazol]-5-yl)urea]",< 100
8,"COCCN1C[C@@H](NC(=O)Nc2c(C)c(-c3cnn(C)c3)nn2-c2cccc(F)c2)[C@H](c2ccc(F)c(F)c2)C1 [Example 313, 1-((3S,4R)-4-(3,4-difluorophenyl)-1-(2-methoxyethyl)pyrrolidin-3-yl)-3-(1-(3-fluorophenyl)-1′,4-dimethyl-1H,1′H-[3,4′-bipyrazol]-5-yl)urea]",< 100
9,"COCCN1C[C@@H](NC(=O)Nc2c(C)c(-c3cnn(C)c3)nn2-c2ccccc2F)[C@H](c2ccc(F)c(F)c2)C1 [Example 314, 1-((3S,4R)-4-(3,4-difluorophenyl)-1-(2-methoxyethyl)pyrrolidin-3-yl)-3-(1-(2-fluorophenyl)-1′,4-dimethyl-1H,1′H-[3,4′-bipyrazol]-5-yl)urea]",< 100
10,"COCCN1C[C@@H](NC(=O)Nc2c(C)c(-c3cnn(C)c3)nn2-c2ccc(F)cc2)[C@H](c2ccc(F)cc2)C1 [Example 318, 1-((3S,4R)-4-(4-fluorophenyl)-1-(2-methoxyethyl)pyrrolidin-3-yl)-3-(1-(4-fluorophenyl)-1′,4-dimethyl-1H,1′H-[3,4′-bipyrazol]-5-yl)urea]",100 to 1000
11,COCCN1C[C@@H](NC(=O)Nc2c(C)c(-c3cnn(C)c3)nn2-c2ccc(F)c(Cl)c2)[C@H](c2ccc(F)cc2)C1 [Example 322],< 100
12,COCCN1C[C@@H](NC(=O)Nc2c(C)c(-c3cnn(C)c3)nn2-c2cccc(Cl)c2F)[C@H](c2ccc(F)cc2)C1 [Example 323],< 100
13,"COCCN1C[C@@H](NC(=O)Nc2c(C)c(-c3cnn(C)c3)nn2-c2ccccc2)[C@H](c2ccc(F)cc2F)C1 [Example 324, 1-((3S,4R)-4-(2,4-difluorophenyl)-1-(2-methoxyethyl)pyrrolidin-3-yl)-3-(1′,4-dimethyl-1-phenyl-1H,1′H-[3,4′-bipyrazol]-5-yl)urea]",< 100
14,"COCCN1C[C@@H](NC(=O)Nc2c(C)c(-c3cnn(C)c3)nn2-c2ccccc2)[C@H](c2ccc(C)cc2)C1 [Example 327, 1-(1′,4-dimethyl-1-phenyl-1H,1′H-[3,4′-bipyrazol]-5-yl)-3-((3S,4R)-1-(2-methoxyethyl)-4-(p-tolyl)pyrrolidin-3-yl)urea]",< 100
15,"COCCN1C[C@@H](NC(=O)Nc2c(C)c(-c3ccccc3)nn2-c2ccccc2)[C@H](c2ccc(F)c(F)c2)C1 [Example 328, 1-((3S,4R)-4-(3,4-difluorophenyl)-1-(2-methoxyethyl)pyrrolidin-3-yl)-3-(4-methyl-1,3-diphenyl-1H-pyrazol-5-yl)urea]",< 100
16,"COCCN1C[C@@H](NC(=O)Nc2c(C)c(-c3ccccc3)nn2-c2ccccc2)[C@H](c2cc(F)cc(F)c2)C1 [Example 329, 1-((3S,4R)-4-(3,5-difluorophenyl)-1-(2-methoxyethyl)pyrrolidin-3-yl)-3-(4-methyl-1,3-diphenyl-1H-pyrazol-5-yl)urea]",< 100
17,"COCCN1C[C@@H](NC(=O)Nc2c(C)c(-c3ccccc3)nn2-c2ccccc2)[C@H](c2cc(F)c(F)c(F)c2)C1 [Example 330, 1-((3S,4R)-4-(3,4,5-trifluorophenyl)-1-(2-methoxyethyl)pyrrolidin-3-yl)-3-(4-methyl-1,3-diphenyl-1H-pyrazol-5-yl)urea]",< 100
18,"COCCN1C[C@@H](NC(=O)Nc2c(C)c(-c3ccccc3)nn2-c2ccccc2)[C@H](c2ccc(F)cc2)C1 [Example 331, 1-((3S,4R)-4-(4-fluorophenyl)-1-(2-methoxyethyl)pyrrolidin-3-yl)-3-(4-methyl-1,3-diphenyl-1H-pyrazol-5-yl)urea]",< 100
19,COCCN1CC(c2cnn(C)c2)[C@H](NC(=O)Nc2c(Br)c(C)nn2-c2ccccc2)C1 (some centres unmarked) [Example 332],100 to 1000
20,"COCCN1C[C@@H](NC(=O)Nc2c(C)c(C)nn2-c2ccccc2)[C@H](c2cccc(C(F)(F)F)c2)C1 [Example 336, 1-(3,4-dimethyl-1-phenyl-1H-pyrazol-5-yl)-3-((3S,4R)-1-(2-methoxyethyl)-4-(3-(trifluoromethyl)phenyl)pyrrolidin-3-yl)urea]",< 100
21,"COCCN1C[C@@H](NC(=O)Nc2c3c(nn2-c2ccccc2)CCC3)[C@H](c2cncc(F)c2)C1 [Example 337, 1-((3S,4R)-4-(5-fluoropyridin-3-yl)-1-(2-methoxyethyl)pyrrolidin-3-yl)-3-(2-phenyl-2,4,5,6-tetrahydrocyclopenta[c]pyrazol-3-yl)urea]",< 100
22,"COCCN1C[C@H](NC(=O)Nc2c3c(nn2-c2ccccc2)CCC3)[C@@H](c2cncc(F)c2)C1 [Example 338, 1-((3R,4S)-4-(5-fluoropyridin-3-yl)-1-(2-methoxyethyl)pyrrolidin-3-yl)-3-(2-phenyl-2,4,5,6-tetrahydrocyclopenta[c]pyrazol-3-yl)urea]",< 100
23,"COCCN1C[C@@H](NC(=O)Nc2c(C)c(OCCF)nn2-c2ccccc2)[C@H](c2cncc(F)c2)C1 [Example 339, 1-(3-(2-fluoroethoxy)-4-methyl-1-phenyl-1H-pyrazol-5-yl)-3-((3S,4R)-4-(5-fluoropyridin-3-yl)-1-(2-methoxyethyl)pyrrolidin-3-yl)urea]",< 100
24,"COCCN1C[C@H](NC(=O)Nc2c(C)c(OCCF)nn2-c2ccccc2)[C@@H](c2cncc(F)c2)C1 [Example 340, 1-(3-(2-fluoroethoxy)-4-methyl-1-phenyl-1H-pyrazol-5-yl)-3-((3R,4S)-4-(5-fluoropyridin-3-yl)-1-(2-methoxyethyl)pyrrolidin-3-yl)urea]",100 to 1000
25,"COCCN1C[C@@H](NC(=O)Nc2c(C)c(-c3cnn(C)c3)nn2-c2ccccc2)[C@H](c2ccncc2F)C1 [Example 346, 1-(1′,4-dimethyl-1-phenyl-1H,1′H-[3,4′-bipyrazol]-5-yl)-3-((3S,4R)-4-(3-fluoropyridin-4-yl)-1-(2-methoxyethyl)pyrrolidin-3-yl)urea]",< 100
26,"COCCN1C[C@@H](NC(=O)Nc2c(C)c(-c3ncn(C)n3)nn2-c2ccccc2)[C@H](c2ccc(F)c(F)c2)C1 [Example 347, 1-((3S,4R)-4-(3,4-difluorophenyl)-1-(2-methoxyethyl)pyrrolidin-3-yl)-3-(4-methyl-3-(1-methyl-1H-1,2,4-triazol-3-yl)-1-phenyl-1H-pyrazol-5-yl)urea]",< 100
27,"COCCN1C[C@@H](NC(=O)Nc2c(C)c(-c3cnn(CCOC)c3)nn2-c2ccccc2)[C@H](c2ccc(F)c(F)c2)C1 [Example 348, 1-((3S,4R)-4-(3,4-difluorophenyl)-1-(2-methoxyethyl)pyrrolidin-3-yl)-3-(1′-(2-methoxyethyl)-4-methyl-1-phenyl-1H,1′H-[3,4′-bipyrazol]-5-yl)urea]",< 100
28,"COCCN1C[C@@H](NC(=O)Nc2c(C)c(C#N)nn2-c2ccccc2)[C@H](c2ccc(F)c(F)c2)C1 [Example 349, 1-(3-cyano-4-methyl-1-phenyl-1H-pyrazol-5-yl)-3-((3S,4R)-4-(3,4-difluorophenyl)-1-(2-methoxyethyl)pyrrolidin-3-yl)urea]",< 100
29,"COCCN1C[C@@H](NC(=O)Nc2c(C)c(-c3cnn(CCO)c3)nn2-c2ccccc2)[C@H](c2ccc(F)c(F)c2)C1 [Example 350, 1-((3S,4R)-4-(3,4-difluorophenyl)-1-(2-methoxyethyl)pyrrolidin-3-yl)-3-(1′-(2-hydroxyethyl)-4-methyl-1-phenyl-1H,1′H-[3,4′-bipyrazol]-5-yl)urea]",< 100
